From US20230398049A1, “TETRAPEPTIDES, COMPOSITIONS COMPRISING THEM, AND THEIR COSMETIC USE” (Sederma, priority 2020, published 2023)
Peptide text beside a SMILES is read from it. * marks the point of attachment. Palmitoyl = CCCCCCCCCCCCCCCC(=O)*

What was measured:
Type in all cases: cell-based
Collagen I (PIP) = assay: ELISA assay of collagen I synthesis (PIP) by normal human fibroblasts; settings: NHF, 72 h contact, ELISA on supernatant
Protocol: (§1) Normal human fibroblasts (NHF) in culture are brought into contact with the products to be tested or their excipient (negative control) for 72 h. At the end of the contact, the culture supernatants are removed, and the syntheses of the dermal macromolecules are estimated by ELISA assays. An estimate of cell viability is carried out by Hoechst assay to weight the obtained data. Collagen I is evaluated via the PIP assay (carboxy-terminal propeptide of procollagen type I) which is a peptide fragment resulting from the enzymatic degradation of procollagen when the latter is excreted outside the fibroblast (therefore in the culture medium where the assay is carried out).

Fibronectine = assay: ELISA assay of fibronectin synthesis by normal human fibroblasts; settings: NHF, 72 h contact, ELISA on supernatant
Protocol: as §1

Decorine [1] = assay: ELISA assay of decorin synthesis by normal human fibroblasts; settings: NHF, 72 h contact, ELISA on supernatant
Protocol: as §1

Fibrillin 1 = assay: Immunofluorescence assay of Fibrillin 1 formation by normal human fibroblasts; settings: NHF, five day incubation
Protocol: Normal human fibroblasts (NHF) are cultured for at least 24 hours in fibroblast growth medium containing serum. Once confluence was reached, the cells are seeded and the actives and corresponding controls diluted in a culture medium are added. At the end of a five day incubation period, the supernatant is removed, the cells are washed with PBS and fixed. The cells are then incubated with the primary Fibrillin 1 monoclonal antibody (11C1.3) (Thermo Fisher) diluted in blocking buffer at a concentration of 1:200. The cells are incubated. The primary antibody is removed and the cells are washed with PBS. The secondary antibody was added at a dilution of 1:1000 in blocking buffer, then removed and the cells are washed with PBS. The formation of Fibrillin 1 by the cells is visualized using a fluorescence microscope. The obtained images are analyzed using an image processing software assigning a numerical value to the coverage density.

Collagen IV = assay: ELISA assay of collagen IV synthesis by normal human fibroblasts; settings: NHF, 72 h contact, concentrations of 2 to 3 ppm, ELISA on supernatant
Protocol: as §1

Hyaluronic acid = assay: ELISA assay of hyaluronic acid synthesis by normal human fibroblasts; settings: NHF, 72 h contact, concentrations of 2 to 3 ppm, ELISA on supernatant
Protocol: as §1

Nidogen-1 = assay: LC-MS/MS analysis of secretome and matrisome of human dermal fibroblasts: Nidogen-1; settings: HDF, seven days culture, pooled secretome and matrisome, n=3, p<0.05
Protocol: (§2) Protocol Human dermal fibroblasts (HDF) are cultured with or without the peptide according to the invention (control) in n=3. The cells are cultured normally for five days in serum supplemented medium, then for two additional days in serum-free medium (culture of seven days in total). The cellular medium (secretome) is collected and the matrix separated from the cells with EDTA. The secretome and matrisome are kept for LC-MS/MS analysis. The cells are saved for future analysis. The secretome and matrisome compartments are pooled and processed as single samples.
(§3) Mass spectrometry is used to determine the total amount of certain proteins identified in the secretome and matrisome in the presence of the peptide of the invention and which are absent from the control following the day 7 of incubation. The proteins are denatured (in urea), reduced (in dithiothreitol) and mechanically dissociated (using ultrasound) prior to overnight digestion with the SMART Digest™ Trypsin Kit (Thermo Fisher).
(§4) The samples are analyzed on an UltiMate® 3000 rapid separation liquid chromatograph coupled to a Q Exactive™ Quadrupole-Orbitrap™ hybrid mass spectrometer: 200 ng injected at an analysis time of 90 minutes per sample.
(§5) Protein quantification is performed using Progenesis QI and protein identification using Mascot v2.5.1. Normalized protein concentrations are compared between the peptide and the control. […]

Decorine [2] = assay: LC-MS/MS analysis of secretome and matrisome of human dermal fibroblasts: Decorine; settings: HDF, seven days culture, pooled secretome and matrisome, n=3, 0.05<p<0.1
Protocol: as §2, §3, §4, §5

SOD3 = assay: LC-MS/MS analysis of secretome and matrisome of human dermal fibroblasts: SOD3; settings: HDF, seven days culture, pooled secretome and matrisome, n=3, 0.05<p<0.1
Protocol: as §2, §3, §4, §5

RAD23A = assay: LC-MS/MS analysis of secretome and matrisome of human dermal fibroblasts: RAD23A; settings: HDF, seven days culture, pooled secretome and matrisome, n=3, 0.05<p<0.1
Protocol: as §2, §3, §4, §5

Compound | Collagen I (PIP) synthesis, change vs excipient control (Collagen I (PIP); concentrations of 5 to 15 ppm) | Fibronectine synthesis, change vs excipient control (Fibronectine; concentrations of 5 to 15 ppm) | Decorine synthesis, change vs excipient control (Decorine [1]; concentrations of 5 to 15 ppm) | Fibrillin 1 formation (coverage density), change vs control (Fibrillin 1; 10 ppm) | Collagen I (PIP) synthesis, change vs excipient control (Collagen I (PIP); concentrations of 2 to 3 ppm) | Fibronectine synthesis, change vs excipient control (Fibronectine; concentrations of 2 to 3 ppm) | Decorine synthesis, change vs excipient control (Decorine [1]; concentrations of 2 to 3 ppm) | Collagen IV synthesis, change vs excipient control (Collagen IV) | Hyaluronic acid synthesis, change vs excipient control (Hyaluronic acid) | Fibrillin 1 formation (coverage density), change vs control (Fibrillin 1; 4 ppm) | Nidogen-1 protein amount vs control (Nidogen-1) | Decorine protein amount vs control (Decorine [2]) | SOD3 protein amount vs control (SOD3) | RAD23A protein amount vs control (RAD23A)
CCCCCCCCCCCCCCCC(=O)N[C@@H](CC(C)C)C(=O)N[C@@H](CCCCN)C(=O)N[C@@H](CC(C)C)C(=O)N[C@@H](CCC(=O)O)C(=O)O [Pal-LKLE-OH, palmitoyl-leucyl-lysyl-leucyl-glutamic acid] (Palmitoyl-LKLE-OH) | +81% | +48% | +21% | +81% (p < 0.05) |  |  |  |  |  |  |  |  |  | 
Pal-ELED-OH: N-palmitoylated tetrapeptide Glu-Leu-Glu-Asp, free C-terminal acid; ELED is a fragment of Biglycan (Palmitoyl-ELED-OH; SMILES CCCCCCCCCCCCCCCC(=O)N[C@@H](CCC(=O)O)C(=O)N[C@@H](CC(C)C)C(=O)N[C@@H](CCC(=O)O)C(=O)N[C@@H](CC(=O)O)C(=O)O) |  |  |  |  | +42% | +70% | +69% | +42% | +28% | +97% (p < 0.05) | stimulation | stimulation | stimulation | stimulation
